The source of these data is US10463658B2, “Method of inhibiting FLT3 kinase” (AROG Pharmaceuticals, LLC, priority 2013, dated 2019).

One assay has as its target T1, FLT3 ITD (Homo sapiens, UniProt P36888).
T1 sequence (P36888 1-993): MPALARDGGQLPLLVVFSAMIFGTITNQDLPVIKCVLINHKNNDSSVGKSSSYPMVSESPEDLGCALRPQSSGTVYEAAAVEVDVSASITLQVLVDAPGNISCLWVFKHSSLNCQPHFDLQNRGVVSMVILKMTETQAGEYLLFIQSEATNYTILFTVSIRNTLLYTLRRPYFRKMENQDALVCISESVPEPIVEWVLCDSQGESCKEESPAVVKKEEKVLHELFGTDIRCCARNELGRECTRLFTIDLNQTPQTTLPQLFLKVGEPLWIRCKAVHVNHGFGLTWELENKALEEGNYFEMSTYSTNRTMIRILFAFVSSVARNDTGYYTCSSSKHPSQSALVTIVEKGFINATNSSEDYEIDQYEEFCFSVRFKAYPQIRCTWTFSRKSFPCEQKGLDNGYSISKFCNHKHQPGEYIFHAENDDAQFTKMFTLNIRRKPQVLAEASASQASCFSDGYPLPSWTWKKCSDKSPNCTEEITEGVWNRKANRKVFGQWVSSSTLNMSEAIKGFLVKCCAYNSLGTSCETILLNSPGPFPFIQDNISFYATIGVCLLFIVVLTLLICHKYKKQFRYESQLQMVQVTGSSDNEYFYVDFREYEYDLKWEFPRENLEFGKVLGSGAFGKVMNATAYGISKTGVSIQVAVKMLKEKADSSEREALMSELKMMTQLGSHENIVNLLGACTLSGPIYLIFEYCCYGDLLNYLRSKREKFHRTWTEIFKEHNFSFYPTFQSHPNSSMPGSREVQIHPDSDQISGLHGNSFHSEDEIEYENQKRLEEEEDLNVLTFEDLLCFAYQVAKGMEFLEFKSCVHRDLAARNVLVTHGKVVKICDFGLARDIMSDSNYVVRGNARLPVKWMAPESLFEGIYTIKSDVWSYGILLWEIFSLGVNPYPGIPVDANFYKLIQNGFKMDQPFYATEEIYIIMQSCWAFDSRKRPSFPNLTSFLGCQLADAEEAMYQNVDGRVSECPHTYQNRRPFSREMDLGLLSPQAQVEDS
As to conditions: read-out: Binding Constant (Kd), FLT3 ITD; CP-673,451 as tosylate salt.

In a further assay the target is T2, FLT3 non-autoinhibited (Homo sapiens, UniProt P36888).
T2 construct: host or cells: E. coli BL21-derived host (T7 phage) or HEK-293
T2 sequence (P36888 610-943 limits assumed): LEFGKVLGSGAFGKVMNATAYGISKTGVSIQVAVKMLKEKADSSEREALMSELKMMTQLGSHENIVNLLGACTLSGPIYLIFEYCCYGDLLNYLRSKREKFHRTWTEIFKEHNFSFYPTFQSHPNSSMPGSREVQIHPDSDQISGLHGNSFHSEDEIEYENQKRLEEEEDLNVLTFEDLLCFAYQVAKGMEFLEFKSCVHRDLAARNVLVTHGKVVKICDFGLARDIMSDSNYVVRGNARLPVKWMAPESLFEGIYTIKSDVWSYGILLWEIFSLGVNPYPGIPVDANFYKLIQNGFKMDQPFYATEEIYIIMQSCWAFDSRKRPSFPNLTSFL
Briefly: KINOMEscan KdElect competitive binding assay, non-autoinhibited FLT3. Particulars: tosylate salt. The text has this: Competitive binding assay.
The lysates were then centrifuged and filtered.

A further assay has as its target T3, wild type FLT3 (Homo sapiens, UniProt P36888).
T3 construct: purchased Millipore
T3 sequence (P36888 27-993): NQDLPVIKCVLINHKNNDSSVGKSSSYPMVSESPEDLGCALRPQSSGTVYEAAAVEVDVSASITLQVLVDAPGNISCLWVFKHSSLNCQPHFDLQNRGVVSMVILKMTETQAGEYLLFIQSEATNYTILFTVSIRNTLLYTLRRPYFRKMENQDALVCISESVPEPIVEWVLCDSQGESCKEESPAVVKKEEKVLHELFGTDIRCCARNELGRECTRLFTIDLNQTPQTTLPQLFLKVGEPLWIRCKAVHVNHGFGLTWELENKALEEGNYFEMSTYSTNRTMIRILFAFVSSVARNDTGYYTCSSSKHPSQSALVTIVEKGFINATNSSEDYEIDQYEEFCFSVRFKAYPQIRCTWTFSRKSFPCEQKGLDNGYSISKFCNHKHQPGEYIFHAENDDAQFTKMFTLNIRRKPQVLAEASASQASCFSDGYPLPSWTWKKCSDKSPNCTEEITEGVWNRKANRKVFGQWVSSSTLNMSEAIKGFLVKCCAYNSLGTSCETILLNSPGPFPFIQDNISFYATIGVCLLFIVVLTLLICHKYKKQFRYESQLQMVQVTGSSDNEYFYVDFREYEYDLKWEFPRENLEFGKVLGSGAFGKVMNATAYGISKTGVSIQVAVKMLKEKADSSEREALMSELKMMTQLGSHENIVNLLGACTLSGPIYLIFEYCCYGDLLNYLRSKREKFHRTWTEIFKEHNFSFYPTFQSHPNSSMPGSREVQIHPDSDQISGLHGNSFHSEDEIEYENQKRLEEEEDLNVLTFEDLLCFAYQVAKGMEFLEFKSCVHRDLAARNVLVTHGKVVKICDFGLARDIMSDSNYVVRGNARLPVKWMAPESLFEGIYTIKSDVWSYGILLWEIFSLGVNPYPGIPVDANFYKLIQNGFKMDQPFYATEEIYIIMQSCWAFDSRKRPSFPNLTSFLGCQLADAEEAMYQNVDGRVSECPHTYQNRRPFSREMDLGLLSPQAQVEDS
Nature of the assay: Direct enzyme phosphorylation assay (Millipore Kinase IC50 Profiler), wild type FLT3. Type of assay: biochemical. Particulars: tosylate salt; n=2; read-out: IC50 against wild type FLT3. The method, then: Direct enzyme phosphorylation assay. The Millipore Kinase IC50 Profiler assay was used to screen the present invention against a panel of normal FLT3 and mutated FLT3 kinases. For assays of both kinases, the FLT3 enzyme was incubated with 8 mM of 3-(N-morpholino)propanesulfonic acid (MOPS) at a pH of 7.0, 0.2 mM Ethylenediaminetetraacetic acid (EDTA), 50 uM, a synthetic Abl peptide substrate […] (SEQ ID NO: 1), 10 mM MgAcetate and [γ-^33P-ATP]. The reaction was initiated by the addition of MgATp mix. The reaction mixture was incubated for 40 minutes at room temperature and halted by the addition of 3% phosphoric acid solution. 10 uL of the reaction solution was spotted on P30 filtermat and washed three times in 75 mM phosphoric acid for 5 minutes and then once in methanol prior to drying and scintillation counting. The scintillation values for each replicate, including positive and negative controls, were analyzed using XLFit version 5.1 to determine the IC50 values for the present invention against normal and mutated FLT3.

Regarding `COCCOc1ccc2c(c1)ncn2-c1ccc2cccc(N3CCC(N)CC3)c2n1` [CP-673,451], the Kd (commonly the equilibrium constant for the complex coming apart) came to 0.25 nM at FLT3 ITD and 0.35 nM at FLT3 non-autoinhibited (average Kd, read-out: Binding Constant (Kd), FLT3 non-autoinhibited). Moreover, the “affinity shift between the non-autoinhibited and autoinhibited states of FLT3” value on FLT3 non-autoinhibited is listed as “approximately 50 fold”. Further, the IC50 (as a rule, the concentration needed to halve the response being measured) at wild type FLT3 stood at 4 nM.
